One assay has as its target Bcl-2 protein (Homo sapiens (Human), UniProt P10415). The assay is described as follows: Inhibition of Bcl-2 by the fluorescence polarisation technique. The class given is binding. The following applies: fluorescence polarisation test; concentration that inhibits fluorescence polarisation by 50%; read-out: IC50 (nM) Bcl-2 FP. The procedure:
The fluorescence polarisation tests were carried out on microplates (384 wells). […] After incubation for 2 hours, the fluorescence polarisation is measured.
A general note: Polarisation of emitted light reports the rotation of a fluorescent probe.

The subject of assay [1] is RS4;11 leukaemia tumour line. The assay is described as follows: In vitro cytotoxicity (Microculture Tetrazolium Assay, 48 hours). It is filed as cell-based. Conditions: Homo sapiens, RS4;11 cells, 48 hours exposure, MTT, concentration that inhibits cell viability by 50%, read-out: IC50 (nM) MTT RS4. On the procedure:
The cytotoxicity studies were carried out on the RS4;11 leukaemia tumour line.
The cells are distributed onto microplates and exposed to the test compounds for 48 hours.

The subject of the next assay is caspase 3. The assay is described as follows: Induction of caspase activity in vivo (DEVDase activity in tumour lysates, RS4;11 xenograft). The following applies: Mus musculus; oral treatment, 50 mg/kg, 16 hours after treatment, RS4;11 xenograft in SCID mice; read-out: Activation factor (versus control), DEVDase activity in the tumours. The arrangement: species or system mice (SCID strain). On the procedure: (§1) The ability of the compounds of the invention to activate caspase 3 is evaluated in a xenograft model of RS4;11 leukaemia cells.
1×10^7 RS4;11 cells are grafted sub-cutaneously into immunosuppressed mice (SCID strain). 25 to 30 days after the graft, the animals are treated orally with the various compounds. Sixteen hours after treatment, the tumour masses are recovered and lysed, and the caspase 3 activity is measured in the tumour lysates.
This enzymatic measurement is carried out by assaying the appearance of a fluorigenic cleavage product (DEVDase activity, Promega). It is expressed in the form of an activation factor corresponding to the ratio between the two caspase activities:the activity for the treated mice divided by the activity for the control mice.

Assay [2] deals with cleaved form of caspase 3. Kind of assay: Quantification of the cleaved form of caspase 3 in vivo (MSD ELISA, RS4;11 xenograft). The arrangement: species or system mice (SCID strain). The following applies: oral treatment, RS4;11 xenograft in SCID mice. The procedure:
as §1
1×10^7 RS4;11 cells are grafted subcutaneously into immunosuppressed mice (SCID strain). 25 to 30 days after the graft, the animals are treated orally with the various compounds. After treatment, the tumour masses are recovered and lysed, and the cleaved (activated) form of caspase 3 is quantified in the tumour lysates.
The quantification is carried out using the “Meso Scale Discovery (MSD) ELISA platform” test, which specifically assays the cleaved form of caspase 3. It is expressed in the form of an activation factor corresponding to the ratio between the quantity of cleaved caspase 3 in the treated mice divided by the quantity of cleaved caspase 3 in the control mice.
On the technique in general: ELISA stands for enzyme-linked immunosorbent assay.

Where a name gives a salt, the structure may show the parent alone.

The record followed here is US9120791B2, “Indolizine compounds, a process for their preparation and pharmaceutical compositions containing them” (LES LABORATOIRES SERVIER, priority 2012, dated 2015).

Chain of Bcl-2 protein (P10415 whole entry): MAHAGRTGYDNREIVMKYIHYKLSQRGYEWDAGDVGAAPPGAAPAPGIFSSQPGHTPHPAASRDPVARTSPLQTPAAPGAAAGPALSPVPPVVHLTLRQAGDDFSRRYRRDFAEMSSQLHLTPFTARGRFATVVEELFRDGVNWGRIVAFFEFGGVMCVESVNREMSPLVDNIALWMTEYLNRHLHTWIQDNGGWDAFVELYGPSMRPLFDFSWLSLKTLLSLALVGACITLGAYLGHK

Consider `Cn1ccc2cc(N(C(=O)c3cc(-c4cc5c(cc4C(=O)N4Cc6ccccc6C[C@H]4CN4CCOCC4)OCO5)n4ccccc34)c3ccc(O)cc3)ccc21` [Example 59, N-(4-Hydroxyphenyl)-N-(1-methyl-1H-indol-5-yl)-3-{6-[((3S)-3-(4-morpholinylmethyl)-3,4-dihydro-2(1H)-isoquinolinyl)carbonyl]-1,3-benzodioxol-5-yl}-1-indolizine carboxamide hydrochloride], for which the IC50 – broadly, the concentration at which inhibition is half-maximal – on Bcl-2 protein was determined as 13 nM; in assay [1] it was 8.13 nM. Also, the fold induction at 50 mg/kg in the assay with caspase 3 was 23.

As for `CN1CCc2cc(N(C(=O)c3cc(-c4cc(Cl)ccc4C(=O)N4Cc5ccccc5C[C@H]4CN4CCOCC4)n4ccccc34)c3ccc(O)cc3)ccc21` [Example 66, 3-{5-Chloro-2-[((3S)-3-(4-morpholinylmethyl)-3,4-dihydro-2(1H)-isoquinolinyl)carbonyl]phenyl}-N-(4-hydroxyphenyl)-N-(1-methyl-2,3-dihydro-1H-indol-5-yl)-1-indolizine carboxamide bis(hydrochloride)], the IC50 on Bcl-2 protein turned out to be 16 nM; in assay [1], 21.7 nM. Also, in the assay with caspase 3, the fold induction at 50 mg/kg came to 24.7.

As for `Cn1ccc2cc(N(C(=O)c3cc(-c4cc(Cl)ccc4C(=O)N4Cc5ccccc5C[C@H]4CN4CCOCC4)n4ccccc34)c3ccc(O)cc3)ccc21` [Example 67, 3-{5-Chloro-2-[((3S)-3-(4-morpholinylmethyl)-3,4-dihydro-2(1H)-isoquinolinyl)carbonyl]phenyl}-N-(4-hydroxyphenyl)-N-(1-methyl-1H-indol-5-yl)-1-indolizine carboxamide hydrochloride], the IC50 at Bcl-2 protein was found to be 24 nM; in assay [1], 17.7 nM. Also, in the assay on caspase 3, the fold induction at 50 mg/kg is 18.9.

Take `Cl.O=C(c1cc(-c2cc(Cl)ccc2C(=O)N2Cc3ccccc3C[C@H]2CN2CCOCC2)n2c1COCC2)N(c1ccccc1)c1ccc(O)cc1` [Example 78, 6-{5-Chloro-2-[((3S)-3-(4-morpholinylmethyl)-3,4-dihydro-2(1H)-isoquinolinyl)carbonyl]phenyl}-N-(4-hydroxyphenyl)-N-phenyl-3,4-dihydro-1H-pyrrolo[2,1-c][1,4]oxazine-8-carboxamide hydrochloride]: the concentration for half-maximal inhibition (IC50) on Bcl-2 protein stood at 31 nM; in assay [1] it was 101 nM. For the same compound, in assay [2] (25 mg/kg), the “Activation factor (versus control), cleaved caspase 3 MSD test in the tumours” value (shortened to “Activation factor (versus control)”) is reported as 10.4 (25 mg/kg).

With `CCCCN(C(=O)c1cc(-c2cc3c(cc2C(=O)N2Cc4ccccc4C[C@H]2CN2CCOCC2)OCO3)n2c1CCCC2)c1ccc(O)cc1.Cl` [Example 87, N-Butyl-N-(4-hydroxyphenyl)-3-{6-[((3S)-3-(4-morpholinylmethyl)-3,4-dihydro-2(1H)-isoquinolinyl)carbonyl]-1,3-benzodioxol-5-yl}-5,6,7,8-tetrahydro-1-indolizine carboxamide hydrochloride], the IC50 stood at 27 nM on Bcl-2 protein and 121 nM in assay [1]. For the same compound, the “Activation factor (versus control)” value in assay [2] (50 mg/kg) is on record as 18.3 (50 mg/kg).

Turning to `Cl.O=C(c1cc(-c2cc3c(cc2C(=O)N2Cc4ccccc4C[C@H]2CN2CCOCC2)OCO3)n2c1CCCC2)N(c1ccc(O)cc1)c1cccc(F)c1` [Example 122, N-(3-Fluorophenyl)-N-(4-hydroxyphenyl)-3-(6-{[(3S)-3-(morpholin-4-ylmethyl)-3,4-dihydroisoquinolin-2(1H)-yl]carbonyl}-1,3-benzdioxol-5-yl)-5,6,7,8-tetrahydroindolizine-1-carboxamide hydrochloride], the results for the IC50 (at Bcl-2 protein; in assay [1]) were 16 nM and 43.5 nM, respectively. In assay [2] (25 mg/kg), the “Activation factor (versus control)” value is given as 17.4 (25 mg/kg).

`Cl.Cn1cc(N(C(=O)c2cc(-c3cc(Cl)ccc3C(=O)N3Cc4ccccc4C[C@H]3CN3CCOCC3)n3c2CCCC3)c2ccc(O)cc2)cn1` [Example 135, 3-(5-Chloro-2-{[(3S)-3-(morpholin-4-ylmethyl)-3,4-dihydroisoquinolin-2(1H)-yl]carbonyl}phenyl)-N-(4-hydroxyphenyl)-N-(1-methyl-1H-pyrazol-4-yl)-5,6,7,8-tetrahydroindolizine-1-carboxamide hydrochloride]: the IC50 was determined as 6 nM at Bcl-2 protein and 37.4 nM in assay [1]. Moreover, in assay [2] (50 mg/kg), the “Activation factor (versus control)” value was 60 (50 mg/kg).
